Experimental findings from ChEMBL document CHEMBL5046276 (J Med Chem, 2022) are described below.

pIC50: −log10 of the molar value. Calls of active or inactive are those of the source.

Data set [1] can be described thus: Selectivity index, ratio of IC50 for cytotoxicity against HEK293T cells to IC50 for antimalarial activity against asexual blood stage wild-type Plasmodium falciparum 3D7. Type of data set: toxicity, cell-based. The settings on record: human, read-out: Ratio IC50.
The test system of data set [2] is Plasmodium falciparum. As to the kind of experiment: Antimalarial activity against asexual blood stage chloroquine-resistant Plasmodium falciparum Dd2 assessed as parasite growth inhibition incubated for 72 hrs by SYBR Green I staining based fluorescence analysis. Type of data set: functional, organism-based. The settings on record: Dd2, 72 h.
A short description of data set [3]: Metabolic stability in mouse liver microsomes assessed as half life at […] incubated for 45 mins in presence of NADPH by LC/MS analysis. The class given is ADME, Microsome. The settings on record: for half-life: liver microsomes. In general terms: Microsomes from liver hold many membrane-bound enzymes, among them those of drug oxidation.
The nature of data set [4]: Selectivity index, ratio of IC50 for cytotoxicity against human HepG2 cells to IC50 for antimalarial activity against asexual blood stage wild-type Plasmodium falciparum 3D7. The class given is toxicity, cell-based. The settings on record: read-out: Ratio IC50.
Data set [5] has as its system Plasmodium yoelii. As to the kind of experiment: Antimalarial activity against blood stage Plasmodium yoelii infected in BALB/c mouse assessed as parasitemia at 60 mg/kg, ip qd for 5 days and measured after 16 days. The class given is functional. The settings on record: time 16 day.
Data set [6] can be described thus: Cytotoxicity against HEK293T cells incubated for 72 hrs by CCK-8 assay. To be noted: human. Background: Tetrazolium assays rely on reduction of a dye to a coloured formazan, in cell work by metabolically active cells.
For data set [7], the system named is Plasmodium falciparum. Kind of data set: Antimalarial activity against asexual blood stage sulfadoxine-pyrimethamine/mefloquine-resistant Plasmodium falcipuram CP286 assessed as parasite growth inhibition incubated for 72 hrs by SYBR Green I staining based fluorescence analysis. Type of data set: functional, organism-based. To be noted: CP286, 72 h.
Data set [8] deals with Plasmodium yoelii. As to the kind of experiment: Antimalarial activity against blood stage Plasmodium yoelii infected in BALB/c mouse assessed as parasite killing by measuring RBC cells in blood smear at 60 mg/kg, ip qd for 5 days by microscopic analysis. Type of data set: functional, organism-based. To be noted: Erythrocyte, time 5.0 day.
Data set [9] deals with Plasmodium falciparum. As to the kind of experiment: Antimalarial activity against asexual blood stage quinine-resistant Plasmodium falcipuram C2A assessed as parasite growth inhibition incubated for 72 hrs by SYBR Green I staining based fluorescence analysis. The class given is functional, organism-based.
Data set [10] in a line: Cytotoxicity against human HepG2 cells incubated for 72 hrs by CCK-8 assay.
In data set [11] the test system is Plasmodium falciparum. As to the kind of experiment: Antimalarial activity against asexual blood stage chloroquine-resistant Plasmodium falcipuram GB4 assessed as parasite growth inhibition incubated for 72 hrs by SYBR Green I staining based fluorescence analysis. To be noted: GB4, 72 h. Type of data set: functional, organism-based.
Data set [12] relates to Plasmodium falciparum. Kind of data set: Antimalarial activity against asexual blood stage wild-type Plasmodium falciparum 3D7 assessed as parasite growth inhibition incubated for 72 hrs by SYBR Green I staining based fluorescence analysis. The settings on record: 3D7, 72 h. The class given is functional, organism-based.
Data set [13] can be described thus: Metabolic stability in mouse liver microsomes assessed as intrinsic clearance at […] incubated for 45 mins in presence of NADPH by LC/MS analysis. Type of data set: ADME, Microsome. The settings on record: read-out: CLH.
Data set [14] relates to Plasmodium falciparum. As to the kind of experiment: Antimalarial activity against wild-type Plasmodium falcipuram 3D7 infected in human RBC assessed as reduction in parasitemia in blood smear by measuring parasite survival ratio at ring stage at upto 700 nM incubated for 6 hrs followed by compound washout and replacement with fresh medium without compounds and measured after 66 hrs by ring stage survival assay. Type of data set: functional. The settings on record: dose nM <=700.

The test system of data set [15] is Plasmodium falciparum. As to the kind of experiment: Antimalarial activity against ART-resistant Plasmodium falcipuram 6218 harbouring C580Y mutant infected in human RBC assessed as reduction in parasitemia in blood smear by measuring parasite survival ratio at ring stage at upto 700 nM incubated for 6 hrs followed by compound washout and replacement with fresh medium without compounds and measured after 66 hrs by ring stage survival assay. Type of data set: functional. To be noted: dose nM <=700.

The subject of data set [16] is Plasmodium falciparum. As to the kind of experiment: Antimalarial activity against ART-resistant Plasmodium falcipuram 6320 harbouring C580Y mutant infected in human RBC assessed as reduction in parasitemia in blood smear by measuring parasite survival ratio at ring stage at upto 700 nM incubated for 6 hrs followed by compound washout and replacement with fresh medium without compounds and measured after 66 hrs by ring stage survival assay. The class given is functional. The settings on record: dose nM <=700.

For data set [17], the target named is T1, NAD-dependent protein deacetylase sirtuin-2 (Homo sapiens, UniProt Q8IXJ6).
T1 sequence (Q8IXJ6 whole entry): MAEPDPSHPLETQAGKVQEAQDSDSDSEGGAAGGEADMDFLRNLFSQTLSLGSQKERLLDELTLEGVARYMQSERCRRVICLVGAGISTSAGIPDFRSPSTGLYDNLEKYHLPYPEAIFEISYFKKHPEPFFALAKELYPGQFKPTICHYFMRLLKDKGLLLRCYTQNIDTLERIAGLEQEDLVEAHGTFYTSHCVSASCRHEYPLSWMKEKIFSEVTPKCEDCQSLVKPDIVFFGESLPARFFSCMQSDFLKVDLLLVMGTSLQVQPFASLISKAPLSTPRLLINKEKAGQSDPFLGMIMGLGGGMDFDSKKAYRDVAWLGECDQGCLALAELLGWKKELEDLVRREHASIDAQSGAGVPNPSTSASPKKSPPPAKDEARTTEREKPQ
As to the kind of experiment: Inhibition of human C-terminal His-tagged SIRT2 (50 to 356 residues) expressed in Escherichia coli using Ac-peptide as substrate incubated for 4 hrs followed by trypsin addition and further incubated for 2 hrs.

The test system of data set [18] is Plasmodium yoelii. Kind of data set: Antimalarial activity against blood stage Plasmodium yoelii infected in BALB/c mouse assessed as parasitemia at 60 mg/kg, ip qd for 5 days and measured after 14 days. Type of data set: functional. To be noted: time 14 day.

Usually pIC50 stands for the IC50 on a negative log10 scale, so that one unit is a factor of ten. In general, half-life refers to the time needed for the level to fall by half in the phase considered. One may read the IC50 as the concentration needed to halve the response being measured. Read a low IC50 as greater potency in that assay. Take `Cl.Cn1c(CN2CC3(CCN(c4ncc(C(=O)NO)cn4)C3)C2)nc2ccccc21`: the selectivity ratio was 5070 in [1] and above 5140 in data set [4]. For the same compound, the pIC50 was 8.40 with Plasmodium falciparum [2]; 8.01 in the data set on Plasmodium falciparum [7]; 8.42 in the data set on Plasmodium falciparum [9]; 8.33 in the data set on Plasmodium falciparum [11]; 8.74 in the data set on Plasmodium falciparum [12]. Moreover, the half-life in data set [3] was found to be 2.23 h. Moreover, the Activity with Plasmodium yoelii [5] is 16.57%. The results for the IC50 at 72 h in data set [6] and in data set [10] were 9330 nM and above 9450 nM, respectively. Besides, the outcome with Plasmodium yoelii [8] was inactive. Also, the CLint scaled in [13] came out at 40.7 mL/min/kg.

Take `Cl.O=C(NO)c1cnc(N2CCC3(CN(Cc4cnc5ccccc5c4)C3)C2)nc1`: the selectivity ratio in data set [1] came to 953; in [4], 537. Moreover, the negative-log IC50 (pIC50) with Plasmodium falciparum [2] was 8.59; in the data set on Plasmodium falciparum [12], 8.42. In data set [3], the half-life was determined as 0.222 h. Also, the half-inhibitory concentration (IC50) at 72 h in data set [6] was 3620 nM; in data set [10], 2040 nM. In data set [13], the CLint scaled is 410 mL/min/kg.

With `C[C@@H]1CC[C@H]2[C@@H](C)C(=O)O[C@@H]3O[C@@]4(C)CC[C@@H]1[C@]32OO4` [ARTEMISININ], the results for the Activity in the data set with Plasmodium falciparum [14], in the data set with Plasmodium falciparum [15] and with Plasmodium falciparum [16] were 0.1%, 8% and 8%, respectively.

Consider `C[C@H]1[C@@H](O)O[C@@H]2O[C@@]3(C)CC[C@H]4[C@H](C)CC[C@@H]1[C@@]24OO3` [ARTENIMOL], for which the negative-log IC50 (pIC50) is 8.56 with Plasmodium falciparum [2]; 8.09 with Plasmodium falciparum [7]; 8.68 in the data set on Plasmodium falciparum [9]; 8.63 with Plasmodium falciparum [11]; 8.55 in the data set with Plasmodium falciparum [12].

Consider `Cc1ccc(C(=O)Nc2ccc(S(=O)(=O)O)c3cc(S(=O)(=O)O)cc(S(=O)(=O)O)c23)cc1NC(=O)c1cccc(NC(=O)Nc2cccc(C(=O)Nc3cc(C(=O)Nc4ccc(S(=O)(=O)O)c5cc(S(=O)(=O)O)cc(S(=O)(=O)O)c45)ccc3C)c2)c1` [SURAMIN], for which the negative logarithm of the IC50 (pIC50) in data set [17] is 5.26.

`Cl.Cn1cc(CN2CC3(CCN(c4ncc(C(=O)NO)cn4)C3)C2)c2ncccc21`: the selectivity ratio in [1] and in [4] was above 7490 throughout. In addition, the pIC50 with Plasmodium falciparum [2] is 8.51; in the data set on Plasmodium falciparum [7], 7.88; with Plasmodium falciparum [9], 8.42; with Plasmodium falciparum [11], 8.35; in the data set on Plasmodium falciparum [12] it was 8.57. Moreover, in data set [3] (microsomes, 0.75 h, 10000 µM), the t1/2 came out at 2.9965 h. The IC50 at 72 h was above 20000 nM in data set [6] and 20000 nM in [10]. The Activity in the data set on Plasmodium yoelii [18] turned out to be 46.37%. The result in the data set on Plasmodium yoelii [8] was inactive.

Take `Cl.Cn1cc(CN2CC3(CCN(c4ncc(C(=O)NO)cn4)C3)C2)c2ccc(Br)cc21`: the selectivity ratio came out at 365 in data set [1] and 381 in [4]. Also, the figures for the negative-log IC50 (pIC50) with Plasmodium falciparum [2] and in the data set with Plasmodium falciparum [12] were 8.62 and 8.71, respectively. Besides, in [3], the half-life was determined as 6.64 h. Further, the half-inhibitory concentration (IC50) at 72 h is 720 nM in [6] and 750 nM in data set [10]. Besides, in data set [13], the CLint scaled was determined as 13.7 mL/min/kg.
